Assay results taken from US6020342A, “Fused imidazo[1,2-A]pyridines” (Shinnippon Pharmaceutical, Inc., priority 1995, dated 2000).

Columns and labels:
[1] = target: T1, H^+ /K^+ -ATPase (Sus scrofa, UniProt P19156); experiment: Inhibitory Action on H^+ /K^+ -ATPase Activity; type: biochemical; details: microsome fraction from porcine gastric mucosa, pH7.4, 37° C., 30 min preincubation, 15 min reaction
T1 construct: a microsome fraction prepared from porcine gastric mucosa was used as a standard enzyme; from tissue; host or cells: porcine gastric mucosa, microsome fraction
Description: Inhibitory Action on H^+ /K^+ -ATPase Activity
According to the method of Hongo et al. [The Japanese Journal of Pharmacology, 52, p295, (1990)], a microsome fraction prepared from porcine gastric mucosa was used as a standard enzyme. The standard enzyme (10-20lig protein) and the test compound (0.1-100 μM) dissolved in dimethylsulfoxide was incubated at 37° C. for 30 minutes in the 50 mM Tris-acetate buffer (pH7.4, containing 2 mM magnesium chloride, 5 mM potassium chloride). The enzyme reaction was started by adding adenosinetriphosphate (ATP). Tris at the final concentration of 2 mM, and the reaction was kept at 37° C. for 15 minutes. The reaction was stopped by adding chilled 10% trichloroacetic acid. Inorganic phosphate released during the reaction was calorimetrically determined according to the method of Fiske-Subbarow [The Journal of Biological Chemistry, 66, p375, (1925)]. H^+ /K^+ -ATPase activity was determined by the difference of the enzyme activities under the conditions with or without potassium chloride. The inhibitory activities of test compounds were determined as the 50% inhibitory concentration (IC50 value) from reaction-concentration curve, and the results are shown in Table 3.

[2] = tested on: gastric acid secretion; experiment: Inhibition of Gastric Acid Secretion Observed Under Acute Fistula Method; type: in vivo, male Wistar rats; details: Rattus norvegicus; 30 mg/kg intraduodenally, rats, histamine 10 mg/kg s.c., cumulative 2 h
Description: Inhibition of Gastric Acid Secretion Observed Under Acute Fistula Method
Male Wistar rats (6-8 weeks) fasted for 24 hours (water ad libitum) were used. The rats were anesthetized by intraperitoneal administration of 1.25 g/kg of urethane. The abdomen was incised, and acute gastric fistula was connected to the stomach. Two ml of saline was injected into the stomach, and recovered every 20 minutes. The gastric acid secretion was determined by titrating of gastric juice by 150 mM sodium hydroxide up to pH7.0 using an autotitrator. Test compounds (30 mg/kg) suspended in a 0.5% aqueous sodium carboxymethylcellulose (CMC-Na) solution were administered intraduodenally. After 1 hour, gastric acid secretion was stimulated by subcutaneous administration of histamine dihydrochloride dissolved in saline (10 mg/kg). Inhibition (%) of gastric acid secretion was determined by calculating cumulative amount of the acid secretion during two hours after histamine stimulation and then comparing the cumulative amount with that in the control group. In the control group, only 0.5% aqueous CMC-Na solution was administered intraduodenally.

[3] = tested on: gastric acid secretion; experiment: Inhibition of Gastric Acid Secretion Observed Under Stomach Perfusion Method; type: in vivo, male Sprague Dawrey rats; details: Rattus norvegicus, ip, 1 h; rats, histamine i.v. 8 mg/kg/hr, inhibition one hour after administration (1-10 mg/kg, "intrapenetorially"); read-out: ID50 (dose showing 50% inhibition of acid secretion)
Description: Inhibition of Gastric Acid Secretion Observed Under Stomach Perfusion Method
Male Sprague Dawrey rats (6-7weeks) fasted for 24 hours were used (water ad libitum). The rats were anesthetized by intraperitoneal administration of 1.25 g/kg of urethane. The abdomen was incised, and gastral cavity was perfused with saline during experiment. The perfusate was titrated by 10 mM sodium hydroxide up to pH5.5 using an autotitrator in accordance with Stat-method. Gastric acid secretion was stimulated by intravenous administration of histamine dihydrochloride (8 mg/kg/hr). Two hours after histamine stimulation, a test compound 1-10 mg/kg) was administered intrapenetorially. The test compound was mixed with small amount of polysorbate-80, and the mixture was suspended in saline. The test compound was evaluated using ID50 (dose showing 50% inhibition of acid secretion) which was calculated based on inhibition of the acid secretion observed one hour after administration of the compound.

[4] = tested on: ethanol-induced gastric lesion; experiment: Inhibition of Ethanol-induced Gastric Lesion (Protection of gastric mucosa); type: in vivo, male Wister rats; details: Rattus norvegicus, po, 1 h; 30 mg/kg orally, rats, ethanol 0.5 ml/100 g
Description: Inhibition of Ethanol-induced Gastric Lesion (Protection of gastric mucosa)
Male Wister rats (6-7weeks, 5 rats per group) fasted for 24 hours were used (water ad libitum). Test compound (30 mg/kg) suspended in 0.5% aqueous CMC-Na solution was orally administered. In the control group, only 0.5% aqueous CMC-Na solution was administered. Thirty minutes after administration, 0.5 ml/100 g body weight of ethanol was orally administered to cause gastric lesion. After one hour, the rat was killed by excessive amount of ether, and the stomach was removed and fixed with 2% formalin. After fixation, the stomach was dissected along the large curvature. The size of each of mucosal lesions was measured under dissecting microscope, and the total size of the lesions per rat was determined and used as ulcer index (mm). Inhibition of gastric lesion was determined by comparing the ulcer index in the control group and test group.

[5] = design: species or system male ICR mice; details: mouse, in vivo, po, 10080 min
Description: Male ICR mice (6 weeks, 3 mice per group) fasted for 16 hours were used ad libitum). A test compound suspended in 5% aqueous gum arabic solution was orally administered. After administration, mortality of the animals observed during 7 days and approximate lethal dose was determined.

T1 sequence (P19156 2-1034 limits assumed): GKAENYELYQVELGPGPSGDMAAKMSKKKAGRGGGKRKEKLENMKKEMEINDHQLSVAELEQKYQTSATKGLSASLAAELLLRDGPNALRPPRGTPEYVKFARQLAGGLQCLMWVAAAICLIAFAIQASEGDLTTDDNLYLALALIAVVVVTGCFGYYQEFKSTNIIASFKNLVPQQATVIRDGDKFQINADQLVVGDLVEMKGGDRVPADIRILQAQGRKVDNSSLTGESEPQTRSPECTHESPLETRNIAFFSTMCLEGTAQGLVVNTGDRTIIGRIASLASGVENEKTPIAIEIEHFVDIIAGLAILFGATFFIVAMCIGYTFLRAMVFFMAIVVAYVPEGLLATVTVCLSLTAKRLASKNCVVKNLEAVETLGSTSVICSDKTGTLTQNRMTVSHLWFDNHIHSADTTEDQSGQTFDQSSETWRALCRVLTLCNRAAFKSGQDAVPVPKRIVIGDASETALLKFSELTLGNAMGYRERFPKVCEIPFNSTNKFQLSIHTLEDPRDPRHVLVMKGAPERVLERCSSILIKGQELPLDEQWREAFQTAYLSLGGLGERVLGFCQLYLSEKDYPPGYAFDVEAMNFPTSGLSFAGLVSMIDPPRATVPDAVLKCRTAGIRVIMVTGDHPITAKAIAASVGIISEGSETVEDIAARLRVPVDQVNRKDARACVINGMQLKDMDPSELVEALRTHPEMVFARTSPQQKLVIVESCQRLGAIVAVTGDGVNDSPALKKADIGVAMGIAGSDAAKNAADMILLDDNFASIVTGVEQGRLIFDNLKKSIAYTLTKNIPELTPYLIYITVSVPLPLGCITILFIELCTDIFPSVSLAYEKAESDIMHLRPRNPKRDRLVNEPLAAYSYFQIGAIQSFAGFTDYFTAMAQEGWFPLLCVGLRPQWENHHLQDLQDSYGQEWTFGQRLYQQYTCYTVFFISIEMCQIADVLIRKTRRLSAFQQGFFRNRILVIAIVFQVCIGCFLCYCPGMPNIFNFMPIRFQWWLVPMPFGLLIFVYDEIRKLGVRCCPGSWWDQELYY
T1 sequence (P18434 whole entry partner): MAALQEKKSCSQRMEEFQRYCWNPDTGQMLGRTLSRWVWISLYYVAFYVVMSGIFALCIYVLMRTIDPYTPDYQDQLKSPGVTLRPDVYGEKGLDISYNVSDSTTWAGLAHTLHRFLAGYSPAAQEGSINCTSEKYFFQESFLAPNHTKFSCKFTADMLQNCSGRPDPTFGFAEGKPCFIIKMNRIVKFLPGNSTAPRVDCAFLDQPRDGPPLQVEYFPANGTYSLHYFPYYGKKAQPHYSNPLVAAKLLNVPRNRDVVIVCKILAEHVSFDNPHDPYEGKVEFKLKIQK

Compound | IC50 [1] | inhibition in vivo at 30 mg/kg [2] | ED50 [3] | inhibition in vivo at 30 mg/kg [4] | Approximate lethal dose [5]
C=CCN(CC=C)c1c(-c2ccccc2C)nc2c3ccccc3ccn12 [Compound 223, 3-diallylamino-2-(2-methylphenyl)imidazo[2,1-a]isoquinoline] | 4.5 µM | 60.1% |  |  | 
Cc1cc(-c2nc3c4ccsc4ccn3c2N)c(C)o1 [Compound 271, 3-Amino-2-(2,5-dimethyl-3-furyl)imidazo[1,2-a]thieno[3,2-c]pyridine] | 5.2 µM |  | 2.4 mg/kg | 99.5% | 
CCCNc1c(-c2ccccc2C)nc2c3ccccc3c(OC)cn12 [Compound 182, 6-Methoxy-2-(2-methylphenyl)-3-propylaminoimidazo[2,1-a]isoquinoline] | 11 µM | 58.4% |  |  | > 2,000 mg/kg
CCN(CCOC)c1c(-c2ccccc2C)nc2c3ccccc3ccn12 [Compound 205, 3-[N-Ethyl-N-(2-methoxyethyl)amino]-2-(2-methylphenyl)imidazo[2,1-a]isoquinoline] |  | 86% |  | 98.6% | > 2,000 mg/kg
CSc1cccc2c1ccn1c(N)c(-c3ccccc3C)nc21 [Compound 46, 3-Amino-2-(2-methylphenyl)-7-(methylthio)imidazo[2,1-a]isoquinoline] | 8.4 µM | 73.8% |  |  | 
Cc1ccccc1-c1nc2c3ccsc3cc(C)n2c1N [Compound 236, 3-Amino-5-methyl-2-(2-methylphenyl)imidazo[1,2-a]thieno[3,2-c]pyridine] | 4.7 µM |  | 1.4 mg/kg | 91.5% | > 2,000 mg/kg
COc1ccc2ccn3c(N)c(-c4ccccc4C)nc3c2c1 [Compound 26, 3-Amino-9-methoxy-2-(2-methylphenyl)imidazo[2,1-a]isoquinoline] | 32 µM | 90.8% | 2.8 mg/kg |  | > 2,000 mg/kg
Cc1ccccc1-c1nc2c3ccccc3ccn2c1N1CCCCC1 [Compound 217, 2-(2-Methylphenyl)-3-piperidinoimidazo[2,1-a]isoquinoline] | 4.7 µM |  |  |  | > 2,000 mg/kg
Cc1ccccc1-c1nc2c3cc(Cl)ccc3ccn2c1N [Compound 6, 3-Amino-9-chloro-2-(2-methylphenyl)imidazo[2,1-a]isoquinoline] | 12 µM | 79.6% | 5 mg/kg |  | > 2,000 mg/kg
CCCN(CC)c1c(-c2ccccc2C)nc2c3ccccc3ccn12 [Compound 207, 3-(N-Ethyl-N-propylamino)-2-(2-methylphenyl)imidazo[2,1-a]isoquinoline] | 9.3 µM | 67.4% |  |  | 
Cc1ccccc1-c1nc2c3sccc3ccn2c1N [Compound 310, 3-Amino-2-(2-methylphenyl)imidazo[1,2-a]thieno[2,3-c]pyridine] | 26 µM |  | 3 mg/kg |  | > 2,000 mg/kg
Cc1sccc1-c1nc2c3ccsc3ccn2c1N [Compound 254, 3-Amino-2-(2-methyl-3-thienyl)imidazo[1,2-a]thieno[3,2-c]pyridine] | 4.5 µM |  | 1.1 mg/kg | 92.4% | 
CCNc1c(-c2sccc2C)nc2c3ccccc3c(OC)cn12 [Compound 176, 3-Ethylamino-6-methoxy-2-(3-methyl-2-thienyl)imidazo[2,1-a]isoquinoline] | 9 µM | 49.9% |  |  | > 2,000 mg/kg
CCNc1c(-c2csc(Cl)c2C)nc2c3ccccc3ccn12 [Compound 179, 2-(2-Chloro-3-methyl-4-thienyl)-3-ethylaminoimidazo[2,1-a]isoquinoline] | 4.8 µM | 52.8% |  |  | > 2,000 mg/kg
Cc1cc(-c2nc3c4ccccc4ccn3c2N)c(C)o1 [Compound 91, 3-Amino-2-(2,5-dimethyl-3-furyl)imidazo[2,1-a]isoquinoline] | 5.6 µM |  |  |  | > 2,000 mg/kg
Cc1ccccc1-c1nc2c3c(Cl)cccc3ccn2c1N [Compound 7, 3-Amino-10-chloro-2-(2-methylphenyl)imidazo[2,1-a]isoquinoline] | 8 µM | 74.9% |  |  | 
COc1ccc2ccn3c(N)c(-c4sccc4C)nc3c2c1 [Compound 75, 3-Amino-9-methoxy-2-(3-methyl-2-thienyl)imidazo[2,1-a]isoquinoline] | 6.4 µM | 73.3% |  |  | 
CCCN(CC)c1c(-c2sccc2C)nc2c3ccccc3ccn12 [Compound 212, 3-(N-Ethyl-N-propylamino)-2-(3-methyl-2-thienyl)imidazo[2,1-a]isoquinoline] | 1.9 µM |  |  |  | > 2,000 mg/kg
Cc1ccccc1-c1nc2c3ccn(C)c3ccn2c1N [Compound 291, 3-Amino-7-methyl-2-(2-methylphenyl)imidazo[1,2-a]pyrrolo[3,2-c]pyridine] | 4.8 µM |  | 6.4 mg/kg |  | 
Cc1ccccc1-c1nc2c3ccsc3ccn2c1N [Compound 234, 3-Amino-2-(2-methylphenyl)imidazo[1,2-a]thieno[3,2-c]pyridine] | 7.6 µM |  | 1.8 mg/kg |  | 
Cc1ccc2ccn3c(N)c(-c4ccccc4C)nc3c2c1 [Compound 10, 3-Amino-9-methyl-2-(2-methylphenyl)imidazo[2,1-a]isoquinoline] | 20 µM |  | 4.2 mg/kg |  | 
Cc1ccccc1-c1nc2c3ccccc3ccn2c1NCCC(C)C [Compound 188, 3-Isopentylamino-2-(2-methylphenyl)imidazo[2,1-a]isoquinoline] | 10.5 µM | 79.1% |  |  | > 2,000 mg/kg
COc1cn2c(N)c(-c3ccccc3C)nc2c2ccccc12 [Compound 24, 3-Amino-6-methoxy-2-(2-methylphenyl)imidazo[2,1-a]isoquinoline] | 13.5 µM |  | 5.4 mg/kg |  | 
CCN(CCCSC)c1c(-c2ccccc2C)nc2c3ccccc3ccn12 [Compound 214, 3-[N-Ethyl-N-(3-methylthiopropyl)amino]-^2-(2-methylphenyl)imidazo[2,1-a]isoquinoline] | 7 µM | 56% |  |  | 
Cc1ccccc1-c1nc2c3ccccc3cc(C)n2c1N [Compound 9, 3-Amino-5-methyl-2-(2-methylphenyl)imidazo[2,1-a]isoquinoline] | 34 µM | 90.7% | 3.1 mg/kg |  | > 2,000 mg/kg
CCc1ccccc1-c1nc2c3ccccc3ccn2c1N(CC)CCC(C)C [Compound 216, 3-(N-Ethyl-N-isopentylamino)-2-(2-ethylphenyl)imidazo[2,1-a]isoquinoline] | 2.5 µM |  |  | 81.7% | > 2,000 mg/kg
